Data published in ChEMBL document CHEMBL3797079, “Synergistic reduction of HIV-1 infectivity by 5-azacytidine and inhibitors of ribonucleotide reductase” (Bioorg Med Chem, 2016).
Activity calls are given as the source filed them. No cut-off for these calls is given here.

Tests used:
U373-MAGI [1] = assay: Reduction in dCTP level in human U373-MAGI cells at 200 uM preincubated for 2 hrs followed by 5-aza-C addition measured after 4 hrs by LC-MS/MS analysis relative to 5-aza-C; assay type: functional, cell-based
U373-MAGI [2] = assay: Effect on 5-aza-dCTP level in human U373-MAGI cells at 50 uM preincubated for 2 hrs followed by 5-aza-dC addition measured after 4 hrs by LC-MS/MS analysis; assay type: functional, cell-based
[3] = tested on: Human immunodeficiency virus 1; assay: Potentiation of 5-Aza-dC-induced antiviral activity against VSV-G pseudotyped HIV-1 NL4-3 infected in human U373-MAGI cells assessed as reduction in U5-gag level at 50 uM after 2 to 72 hrs by qPCR method; assay type: functional, organism-based
U373-MAGI [4] = assay: Increase in 5-aza-dCTP/dCTP ratio in human U373-MAGI cells at 200 uM preincubated for 2 hrs followed by 5-aza-dC addition measured after 4 hrs by LC-MS/MS analysis relative to 5-aza-dC; assay type: functional, cell-based
[5] = tested on: Human immunodeficiency virus 1; assay: Potentiation of 5-Aza-C-induced antiviral activity against VSV-G pseudotyped HIV-1 NL4-3 infected in human U373-MAGI cells assessed as increase in total mutation frequency at 50 uM incubated for 4 hrs preinfection followed by 5-Aza-C addition for 2 hrs preinfection and subsequent viral infection measured at 72 hrs post infection by illumina sequencing method relative to control; assay type: functional, organism-based
[6] = tested on: Human immunodeficiency virus 1; assay: Potentiation of 5-Aza-C-induced antiviral activity against VSV-G pseudotyped HIV-1 NL4-3 infected in human U373-MAGI cells assessed as reduction in U5-gag level at 50 uM after 2 to 72 hrs by qPCR method; assay type: functional, organism-based
[7] = tested on: Human immunodeficiency virus 1; assay: Antiviral activity against VSV-G pseudotyped HIV-1 NL4-3 infected in human U373-MAGI cells assessed as increase in frequency of T to G transversion at 50 uM incubated for 4 hrs prior to infection measured at 72 hrs post infection by illumina sequencing method relative to control; assay type: functional
U373-MAGI [8] = assay: Effect on dRGU-TP level in human U373-MAGI cells at 200 uM preincubated for 2 hrs followed by 5-aza-dC addition measured after 4 hrs by LC-MS/MS analysis; assay type: functional, cell-based
[9] = tested on: Human immunodeficiency virus 1; assay: Antiviral activity against VSV-G pseudotyped HIV-1 NL4-3 infected in human U373-MAGI cells assessed as Vif mutation at 50 uM incubated for 4 hrs prior to infection measured at 72 hrs post infection by illumina sequencing method (reference value: 19.2%); assay type: functional
U373-MAGI [10] = assay: Reduction in dTTP level in human U373-MAGI cells at 50 uM after 6 hrs by LC-MS/MS analysis; assay type: functional, cell-based
[11] = tested on: Human immunodeficiency virus 1; assay: Potentiation of 5-Aza-dC-induced antiviral activity against VSV-G pseudotyped HIV-1 NL4-3 infected in human U373-MAGI cells assessed as Nef mutation at 50 uM incubated for 4 hrs preinfection followed by 5-Aza-C addition for 2 hrs preinfection and subsequent viral infection measured at 72 hrs post infection by illumina sequencing method (reference value: 22.6%); assay type: functional
U373-MAGI [12] = assay: Reduction in dATP level in human U373-MAGI cells at 200 uM after 6 hrs by LC-MS/MS analysis; assay type: functional, cell-based
[13] = tested on: Human immunodeficiency virus 1; assay: Antiviral activity against VSV-G pseudotyped HIV-1 NL4-3 infected in human U373-MAGI cells assessed as reduction in gag level at 50 uM measured at 6 hrs post infection by qPCR method; assay type: functional, organism-based
[14] = tested on: Human immunodeficiency virus 1; assay: Potentiation of 5-Aza-dC-induced antiviral activity against VSV-G pseudotyped HIV-1 NL4-3 infected in human U373-MAGI cells assessed as increase in total mutation frequency at 50 uM incubated for 4 hrs preinfection followed by 5-Aza-C addition for 2 hrs preinfection and subsequent viral infection measured at 72 hrs post infection by illumina sequencing method relative to control; assay type: functional, organism-based
[15] = tested on: Human immunodeficiency virus 1; assay: Potentiation of 5-Aza-dC-induced antiviral activity against VSV-G pseudotyped HIV-1 NL4-3 infected in human U373-MAGI cells assessed as increase in frequency of G to C transversion at 50 uM incubated for 4 hrs preinfection followed by 5-Aza-C addition for 2 hrs preinfection and subsequent viral infection measured at 72 hrs post infection by illumina sequencing method relative to control; assay type: functional, organism-based
[16] = tested on: Human immunodeficiency virus 1; assay: Potentiation of 5-Aza-dC-induced antiviral activity against VSV-G pseudotyped HIV-1 NL4-3 infected in human U373-MAGI cells assessed as increase in frequency of C to G transversion at 50 uM incubated for 4 hrs preinfection followed by 5-Aza-C addition for 2 hrs preinfection and subsequent viral infection measured at 72 hrs post infection by illumina sequencing method relative to control; assay type: functional, organism-based
U373-MAGI [17] = assay: Reduction in dCTP level in human U373-MAGI cells at 50 uM preincubated for 2 hrs followed by 5-aza-dC addition measured after 4 hrs by LC-MS/MS analysis relative to 5-aza-dC; assay type: functional, cell-based
U373-MAGI [18] = assay: Reduction in dCTP level in human U373-MAGI cells at 200 uM preincubated for 2 hrs followed by 5-aza-dC addition measured after 4 hrs by LC-MS/MS analysis relative to 5-aza-dC; assay type: functional, cell-based
[19] = tested on: Human immunodeficiency virus 1; assay: Potentiation of 5-Aza-dC-induced antiviral activity against VSV-G pseudotyped HIV-1 NL4-3 infected in human U373-MAGI cells assessed as reduction in gag level at 50 uM after 2 to 72 hrs by qPCR method; assay type: functional, organism-based
[20] = tested on: Human immunodeficiency virus 1; assay: Potentiation of 5-Aza-C-induced antiviral activity against VSV-G pseudotyped HIV-1 NL4-3 infected in human U373-MAGI cells assessed as reduction in gag level at 50 uM after 2 to 72 hrs by qPCR method; assay type: functional, organism-based
U373-MAGI [21] = assay: Increase in 5-aza-dCTP/dCTP ratio in human U373-MAGI cells at 200 uM preincubated for 2 hrs followed by 5-aza-C addition measured after 4 hrs by LC-MS/MS analysis relative to 5-aza-C; assay type: functional, cell-based
[22] = tested on: Human immunodeficiency virus 1; assay: Antiviral activity against VSV-G pseudotyped HIV-1 NL4-3 infected in human U373-MAGI cells assessed as increase in frequency of T to A transversion at 50 uM incubated for 4 hrs prior to infection measured at 72 hrs post infection by illumina sequencing method relative to control; assay type: functional
[23] = tested on: Human immunodeficiency virus 1; assay: Potentiation of 5-Aza-C-induced antiviral activity against VSV-G pseudotyped HIV-1 NL4-3 infected in human U373-MAGI cells assessed as Pol mutation at 50 uM incubated for 4 hrs preinfection followed by 5-Aza-C addition for 2 hrs preinfection and subsequent viral infection measured at 72 hrs post infection by illumina sequencing method (reference value: 18.5%); assay type: functional
[24] = tested on: Human immunodeficiency virus 1; assay: Antiviral activity against VSV-G pseudotyped HIV-1 NL4-3 infected in human U373-MAGI cells assessed as increase in frequency of A to T transversion at 50 uM incubated for 4 hrs prior to infection measured at 72 hrs post infection by illumina sequencing method relative to control; assay type: functional
[25] = tested on: Human immunodeficiency virus 1; assay: Potentiation of 5-Aza-C-induced antiviral activity against VSV-G pseudotyped HIV-1 NL4-3 infected in human U373-MAGI cells assessed as decrease in 5-Aza-C EC50 at 50 uM preincubated for 2 hrs followed by 5-Aza-C addition for 2 hrs and subsequent viral infection measured at 72 hrs post infection by flow cytometric analysis relative to control; assay type: functional

Oc1ccc(/C=C/c2cc(O)cc(O)c2)cc1 [RESVERATROL]
Activity (U373-MAGI [1]): Active | Activity (U373-MAGI [2]): inactive | Activity [3]: Active | Activity (U373-MAGI [4]): Active | Activity [5]: inactive | Activity [6]: Active | fold change (FC) [7]: 3.2 | Activity (U373-MAGI [8]): inactive | Activity [9]: 23.4% | Activity (U373-MAGI [10]): inactive | Activity [11]: 20.3% | Activity (U373-MAGI [12]): Active | Activity [13]: Active | Activity [14]: inactive | Activity [15]: inactive | Activity [16]: inactive | Activity (U373-MAGI [17]): Active | Activity (U373-MAGI [18]): Active | Activity [19]: Active | Activity [20]: Active | Activity (U373-MAGI [21]): inactive | fold change (FC) [22]: 1.8 | Activity [23]: 21.9% | fold change (FC) [24]: 1.8 | fold change (FC) [25]: 2.5
